Measurements: US10647678B2 (Cancer Research Technology Limited, priority 2015, dated 2020)

Test system: HSF1 pathway (HSP72 expression) in SK-OV-3 cells
Assay: Cell-based ELISA (Cellisa) assay: HSP72 induction by 17-AAG in SK-OV-3 cells
Conditions: Homo sapiens, compound 1 h before 17-AAG (250 nM), then 18 h, HSP72 antibody, europium counts normalised to protein, 50% inhibitory concentration, read-out: SKOV3 Cellisa
Experimental: U2OS cells (5-8×10^4 cells/mL) or SK-OV-3 cells (5-8×10^4 cells/mL) were seeded into 96-well plates and incubated at 37° C. for 48 h. […] Cells were then incubated for 18 h. The medium was removed washed 2× with PBS and cells were then fixed with fixing solution (4% paraformaldehyde, 0.3% TritonX-100 in PBS) for 30 min at 4° C. The plates were then washed 2× with PBS before blocking with 5% milk for 30 min at 37° C. After washing the plates 4× with 0.1% Tween-20/deionised water, HSP72 antibody (SPA-810, Enzo Life) was added for 1.5 h at 37° C. Following 4× washes, the plates were incubated with europium-labelled anti-mouse antibody (0.6 ug/ml) in Delfia assay buffer (Perkin Elmer) for 1 h at 37° C. After washing the plates, Delfia enhancement solution was added, shaken for 10 min before reading in the Envision plate reader (Perkin-Elmer) with excitation at 340 nm and emission at 615 nm. The plates were washed again before protein determination using the bicinchoninic acid assay (BCA assay, Pierce Biotechnology). The europium counts were normalised for the amount of protein in each well. The 50% inhibitory concentration value of the compound was then calculated.

SMILES	IC50 [µM]
Cc1ccc2cc(C(=O)Nc3cc(NC(=O)c4ccc5c(c4)OC(C)C5)ccc3C)ccc2n1 (racemic) [Example 2, (rac)-2-Methyl-N-(2-methyl-5-(2-methyl-2,3-dihydrobenzofuran-6-carboxamido)phenyl)quinoline-6-carboxamide]	3.4
Cc1ccc2cc(C(=O)Nc3cc(NC(=O)c4ccc5c(c4)OC(C)CO5)ccc3C)ccc2n1 (racemic) [Example 3, (rac)-2-Methyl-N-(2-methyl-5-(3-methyl-2,3-dihydrobenzo[b][1,4]dioxine-6-carboxamido)phenyl)quinoline-6-carboxamide]	4.1
Cc1ccc2cc(C(=O)Nc3cc(NC(=O)c4ccc5c(c4)CC(C)O5)ccc3C)ccc2n1 (racemic) [Example 5, (rac)-2-Methyl-N-(2-methyl-5-(2-methyl-2,3-dihydrobenzofuran-5-carboxamido)phenyl)quinoline-6-carboxamide]	2.9
Cc1ccc2cc(C(=O)Nc3cc(NC(=O)c4ccc5c(c4)OC(C)CO5)ccc3F)ccc2n1 (centres unmarked) [Example 4, N-(2-Fluoro-5-(3-methyl-2,3-dihydrobenzo[b][1,4]dioxine-6-carboxamido)phenyl)-2-methylquinoline-6-carboxamide]	8.8
Cc1ccc2cc(C(=O)Nc3cc(NC(=O)c4ccc5c(c4)OCCC5)ccc3F)ccc2n1 [Example 6, N-(5-(Chroman-7-carboxamido)-2-fluorophenyl)-2-methylquinoline-6-carboxamide]	2.7
Cc1ccc2cc(C(=O)Nc3cc(NC(=O)c4ccc5c(c4)OCCC5)ccc3Cl)ccc2n1 [Example 7, N-(2-Chloro-5-(chroman-7-carboxamido)phenyl)-2-methylquinoline-6-carboxamide]	1.5
Cc1ccc2cc(C(=O)Nc3cc(NC(=O)c4ccc5c(c4)OCO5)ccc3C)ccc2n1 [Example 8, N-(5-(Benzo[d][1,3]dioxole-5-carboxamido)-2-methylphenyl)-2-methylquinoline-6-carboxamide]	0.13
Cc1ccc2cc(C(=O)Nc3cc(NC(=O)c4ccc5c(c4)OCC5)ccc3C)ccc2n1 [Example 9, N-(5-(2,3-Dihydrobenzofuran-6-carboxamido)-2-methylphenyl)-2-methylquinoline-6-carboxamide]	0.17
Cc1ccc2cc(C(=O)Nc3cc(NC(=O)c4ccc5c(c4)CCO5)ccc3C)ccc2n1 [Example 10, N-(5-(2,3-dihydrobenzofuran-5-carboxamido)-2-methylphenyl)-2-methylquinoline-6-carboxamide]	1.8
Cc1ccc2cc(C(=O)Nc3cc(NC(=O)c4ccc5ccoc5c4)ccc3C)ccc2n1 [Example 11, N-(5-(benzofuran-6-carboxamido)-2-methylphenyl)-2-methylquinoline-6-carboxamide]	0.88
Cc1ccc2cc(C(=O)Nc3cc(NC(=O)c4ccc5c(c4)OCCCO5)ccc3C)ccc2n1 [Example 12, N-(5-(3,4-dihydro-2H-benzo[b][1,4]dioxepine-7-carboxamido)-2-methylphenyl)-2-methylquinoline-6-carboxamide]	0.67
Cc1ccc2cc(C(=O)Nc3cc(NC(=O)c4ccc5c(c4)OCC5)ccc3F)ccc2n1 [Example 13, N-(5-(2,3-Dihydrobenzofuran-6-carboxamido)-2-fluorophenyl)-2-methylquinoline-6-carboxamide]	1.8
Cc1ccc2cc(C(=O)Nc3cc(NC(=O)c4ccc5c(c4)OCC5)ccc3Cl)ccc2n1 [Example 14, N-(2-Chloro-5-(2,3-dihydrobenzofuran-6-carboxamido)phenyl)-2-methylquinoline-6-carboxamide]	2.1
CCN1CCN(Cc2ccc3cc(C(=O)Nc4cc(NC(=O)c5ccc6c(c5)OCCC6)ccc4F)ccc3n2)CC1 [Example 15, N-(5-(Chroman-7-carboxamido)-2-fluorophenyl)-2-((4-ethylpiperazin-1-yl)methyl)quinoline-6-carboxamide]	1
CCN1CCN(Cc2ccc3cc(C(=O)Nc4cc(NC(=O)c5ccc6c(c5)OCC6)ccc4C)ccc3n2)CC1 [Example 16, N-(5-(2,3-Dihydrobenzofuran-6-carboxamido)-2-methylphenyl)-2-((4-ethylpiperazin-1-yl)methyl)quinoline-6-carboxamide]	0.12
CCN1CCN(Cc2ccc3cc(C(=O)Nc4cc(NC(=O)c5ccc6c(c5)OCC6)ccc4F)ccc3n2)CC1 [Example 17, N-(5-(2,3-Dihydrobenzofuran-6-carboxamido)-2-fluorophenyl)-2-((4-ethylpiperazin-1-yl)methyl)quinoline-6-carboxamide]	0.78
CCN1CCN(Cc2ccc3cc(C(=O)Nc4cc(NC(=O)c5ccc6c(c5)OCC6)ccc4Cl)ccc3n2)CC1 [Example 18, N-(2-Chloro-5-(2,3-dihydrobenzofuran-6-carboxamido)phenyl)-2-((4-ethylpiperazin-1-yl)methyl)quinoline-6-carboxamide]	0.64
O=C(Nc1ccc(F)c(NC(=O)c2ccc3nc(CN4CCC4)ccc3c2)c1)c1ccc2c(c1)OCC2 [Example 19, 2-(Azetidin-1-ylmethyl)-N-(5-(2,3-dihydrobenzofuran-6-carboxamido)-2-fluorophenyl)quinoline-6-carboxamide]	3.1
O=C(Nc1ccc(Cl)c(NC(=O)c2ccc3nc(CN4CCC4)ccc3c2)c1)c1ccc2c(c1)OCCC2 [Example 20, 2-(Azetidin-1-ylmethyl)-N-(2-chloro-5-(chroman-7-carboxamido)phenyl)quinoline-6-carboxamide]	3.8
O=C(Nc1ccc(Cl)c(NC(=O)c2ccc3nc(CN4CCC4)ccc3c2)c1)c1ccc2c(c1)OCC2 [Example 21]	1.8
